Tested on: dry eye model
Assay: Tear film breakup time (BUT) test, dry eye model by erlotinib instillation (Example 1)
Assay type: in vivo
Details: 0.003% (w/v) apocynin in PBS, 3 μL twice daily, two weeks after start of instillation; erlotinib-instilled C57BL6 mice; FIG. 1
Text: After acclimating male C57BL6 mice (7 weeks old) to the experimental environment, those with almost uniform body weight values and no eye abnormalities were divided into the following 3 groups (n=5). • 7 weeks old/normal (non-dry eye group) • 7 weeks old/dry eye model+control (solvent eye drop) group • 7 weeks old/dry eye model+apocynin eye drop group The dry eye model was created by daily instillation of an EGF receptor inhibitor (erlotinib) based on the method of Yang et al. In this model, administration of erlotinib causes dry eye symptoms such as shortened BUT, decreased tear volume, and corneal damage after 1 week of administration (Non-patent Document 3). After 20 μM of erlotinib was instilled for 2 weeks, the control group received PBS alone, and the test group received 3 μL of a suspension of 0.003% (w/v) apocynin in PBS twice daily. Two weeks after the start of instillation, 1 μL of 0.1% sodium fluorescein solution was instilled into each of both eyes under isoflurane anesthesia, and a BUT test was performed using a slit lamp (Kowa Co., Ltd., SL-17) (FIG. 1). […] Under anesthesia, the tip of a Schirmer test paper cut to 1 mm width was inserted into the conjunctival sac of the lower eyelid of the mouse, the test paper was removed after 5 minutes, the length of the wetted part was read in units of 0.5 mm, and the value was used as the tear volume (FIG. 2).

SMILES: COc1cc(C(C)=O)ccc1O [apocynin, 4-hydroxy-3-methoxyacetophenone]
- tear film breakup time (BUT): improved the shortening of BUT

Source: patent publication US20230338307A1, “PROPHYLACTIC AGENT, AMELIORATING AGENT, AND THERAPEUTIC AGENT FOR DRY EYE” (TSUBOTA LABORATORY, INC., priority 2020, published 2023)
